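Step 1: Grow cells in 96-well plates. Step 2: Expose to compound for 48 hours at 5 concentrations. Step 3: Interpolate endpoints linearly; if unreached, use highest concentration. The concentration for 50% growth inhibition is given as GI50. TGI is the concentration that stops growth completely.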 Where a SMILES comes first, the peptide text is derived from it. Peptide text beside a SMILES is read from it. [ ]: non-standard residue; d: D form. The star is where a group is joined. * marks the point of attachment. Hyp = O=C(O)[CH]1C[CH](O)CN1; Cbz = O=C(OCc1ccccc1)*
How the values were obtained:
Assay in all cases: DTP human tumour cell line panel, 48 h
HCT-116 colon = tested on: HCT-116 colon
HOP-62 NSCLC = tested on: HOP-62 NSCLC
HS 578T breast = tested on: HS 578T breast
MCF7 breast = tested on: MCF7 breast
MOLT-4 leukemia = tested on: MOLT-4 leukemia
SK-MEL-28 melanoma = tested on: SK-MEL-28 melanoma
SK-OV-3 ovarian = tested on: SK-OV-3 ovarian
SNB-75 CNS = tested on: SNB-75 CNS
T-47D breast = tested on: T-47D breast
U251 CNS = tested on: U251 CNS
SF-539 CNS = tested on: SF-539 CNS

Structure (SMILES)	TGI (HCT-116 colon) [µM]	TGI (HOP-62 NSCLC) [µM]	TGI (HS 578T breast) [µM]	TGI (MCF7 breast) [µM]	TGI (MOLT-4 leukemia) [µM]	TGI (SK-MEL-28 melanoma) [µM]	TGI (SK-OV-3 ovarian) [µM]	TGI (SNB-75 CNS) [µM]	TGI (T-47D breast) [µM]	TGI (U251 CNS) [µM]	TGI (SF-539 CNS) [µM]	GI50 (HCT-116 colon) [µM]
NC(=O)CNC(=O)C1CC(O)CN1C(=O)C1CCCN1C(=O)OCc1ccccc1 (stereo not drawn) (Cbz-Pro-[Hyp]-Gly-NH2; configuration not given here)	> 100	> 100	> 100	> 100	> 100	> 100	> 100	> 100	> 100	> 100		
CN(C)c1cccc2c(S(=O)(=O)NCCCNCCN)cccc12	> 100	> 100	76.4		41.1	> 100	> 100	68.6	> 100	> 100	49.7	
O=C(c1ccccc1)N1CCC(Nc2cccnc2)O1 (stereo not given)	> 100	> 100	> 100	> 100	> 100	> 100	> 100		> 100	> 100	> 100	
COc1cccc(C=C(C#N)C#N)c1OC	> 100	> 100		> 100	> 100	> 100	> 100	> 100		> 100	> 100	
CCOC(=O)/C=C(/C(=O)OCC)n1cc(C)c(=O)[nH]c1=O	5.74	33.2	46.9	12.7	6.51	15.5	32.4	23.7	17.5	18.8	27.3	
COC(=O)C(Cc1ccccc1)NP(=O)(O)OCC1OC(n2ccc(N)nc2=O)C(O)C1O (stereo not given)	> 100	> 100	> 100	> 100	> 100	> 100	> 100	> 100	> 100	> 100	> 100	
O=C1CCCc2cc3c(cc21)CC1(C3)Cc2cc3c(cc2C1)C(=O)CCC3	37.9	> 63.2	> 100	15.3	> 43.1	41.7	> 44.7	> 100	> 100	36.5	5.85	
O=C(O)c1ccc2[nH]c(=O)oc2c1	> 100	> 100	> 100	> 100	> 100	> 100	> 100	> 100		> 100	> 100	
OCCCN=C1N=C(Cl)/C(=C\c2ccccc2)N1	> 100		> 100	> 100	> 100	> 100	> 100	> 100	> 100	> 100	> 100	
CC(C)C(=O)/C=C/c1ccc(Cl)cc1Cl	10	33.1	22.2	14.2	96.4	30.6	33.7	27.7	25.7	25.2	34	
CNC(=O)OCC1=C(COC(=O)NC)CN(c2ccc(OC)cc2)C1	> 100	> 100	> 100	> 100	> 100	> 100	> 100	> 100	> 100	> 100	> 100	
COc1ccc(/C=C2/C(=O)N(/C=C3\C(=O)Oc4ccccc4C3=O)C(=NC(C)=O)N2C)cc1OC	> 100	> 100	> 100	> 100	> 100	> 100	> 100	> 100	> 100	> 100	> 100	
O=C1c2ccccc2C(=O)c2c1sc1nc3ccccc3n21	3.25		0.0525	3.84	4.89		19.1	46.1	9.02	9.37	3.81	
O=C1C2CCCCC2C(=O)N1n1c(Cc2ccccc2)n[nH]c1=O (stereo not given)	> 100	> 100	> 100	> 100	> 100		> 100	> 100	> 100	> 100	> 100	
CN(C(=O)C12C3(C(=O)O)C4C5(C(=O)O)C3C1(C(=O)O)C5C42C(=O)O)C(C)(C)C (stereo not given)	> 100	> 100	> 100	> 100	> 100	> 100		> 100	> 100	> 100	> 100	
O=[N+]([O-])c1ccc2nc(/C=C(\O)c3ccccc3)c(NC34CC5CC(CC(C5)C3)C4)nc2c1		> 10	> 10	> 10		> 10	> 10	> 10	> 10	> 10	> 10	
c1cc2nnc1SCCSCCCSCCS2	> 100	> 100	> 100	> 100	> 100	> 100	> 100	41.2	> 100	> 100	58.2	
CCOC(=O)/C=C(\C(=O)OCC)n1cc(C)c(=O)n(Cc2cn(COCCOC(C)=O)nn2)c1=O	80.4	38.7	46.1	22	22	48.1	> 100	36	> 100	37.5	9.74	
N#CCc1nc(-c2cc3ccc(O)cc3oc2=O)cs1	> 100	> 100	> 100	> 100	> 100	> 100	> 100	> 100	> 100	> 100	> 100	
O=C1/C(=C\c2cccc(Oc3ccccc3)c2)SC(c2ccccc2)N1Cc1ccccc1 (stereo not given)	34	> 100	82.5	> 100	75.7	> 100	71.9		98.3	64.4	37.3	

Structure (SMILES)	TGI (HCT-116 colon) [µM]	TGI (HOP-62 NSCLC) [µM]	TGI (HS 578T breast) [µM]	TGI (MCF7 breast) [µM]	TGI (MOLT-4 leukemia) [µM]	TGI (SK-MEL-28 melanoma) [µM]	TGI (SK-OV-3 ovarian) [µM]	TGI (SNB-75 CNS) [µM]	TGI (T-47D breast) [µM]	TGI (U251 CNS) [µM]	TGI (SF-539 CNS) [µM]	GI50 (HCT-116 colon) [µM]
O=S(=O)(N1CCCCN(S(=O)(=O)C(F)(F)F)CCCN(S(=O)(=O)C(F)(F)F)CCCCN(S(=O)(=O)C(F)(F)F)CCCN(S(=O)(=O)C(F)(F)F)CCCCN(S(=O)(=O)C(F)(F)F)CCCN(S(=O)(=O)C(F)(F)F)CCCCN(S(=O)(=O)C(F)(F)F)CCC1)C(F)(F)F	> 31.6	> 31.6	> 31.6		> 31.6	> 31.6	> 31.6	> 31.6	> 31.6	> 100	> 31.6	
COc1cc([N+](=O)[O-])cc2c1NC(=O)C2(C)SC (stereo not given)	> 100	> 100	> 100	> 100	> 100	> 100	69.7	90.6	> 100	> 100		
O=C(O)C(C(F)(F)F)C(F)(F)F (tested in a mixture with another compound)	> 100	> 100	> 100	> 100	> 100	> 100	> 100	> 100	> 100	> 100	> 100	
COC(OC)[C@@H]1OC[C@H](n2ccc(=O)[nH]c2=O)[C@H]1O	> 100	> 100	> 100	> 100	> 100	> 100	> 100	> 100	> 100	> 100	> 100	
Cc1[nH]c2[nH]c(=S)nc(NC(N)=S)c2c1Cc1ccccc1	> 100	> 100	60.6	> 100	> 100	48.6	> 100	76.4	89.4	> 100	> 100	
O=c1oc2ccccc2c(O)c1Cc1ccccc1Cc1c(O)c2ccccc2oc1=O	> 100	> 100	> 100	> 100	> 100	> 100	> 100	> 100	> 100	> 100	> 100	
O=C(Cc1ccccc1)Nc1nc2ccc(Cl)cc2c2nc(-c3ccco3)nn12	> 100	> 62.4	> 100	> 100	> 100	> 100	> 100	> 54.2	> 100	> 100	> 60.5	
CN1CCN(c2ccc3nc(-c4ccc5nc(CCCc6ccc(N(CCCl)CCCl)cc6)[nH]c5c4)[nH]c3c2)CC1	> 100	> 100	> 100	> 100	> 100	> 100	> 100	> 100	> 100	> 100	> 100	
CN(C)c1ccc(C2=C([O-])c3cc(-[n+]4ccccc4)ccc3C2=O)cc1	> 100	> 100	> 100	> 100	> 100	> 100		> 100		> 100	> 100	
C=CCc1cccc(/C(O)=C/C(=O)/C=C/c2ccccc2Cl)c1O	> 54.3	61.2		> 100	15.6	> 57.5	97.1	> 100	> 100	> 63.1	72	
C#C[C@@H](OC(=O)c1ccc([N+](=O)[O-])cc1)[C@@H]1C[C@H]2O[C@@H]([C@H](C/C=C/CC)OC(=O)c3ccc([N+](=O)[O-])cc3)C[C@H]2O1	> 100	> 100	> 100		> 100	> 100	> 100	> 100	> 100	> 100	> 100	
CCOC(=O)CCCOc1cc(-c2ccccc2F)nc2cc3c(cc12)OCO3	> 100	> 100		> 100	98	> 100	> 100	> 100	> 100	> 100	> 100	> 100
COc1ccc(OC)c2c1ccc1c(C)c3ccccc3c(C)c12	> 100	> 100		> 100	> 100	> 100		> 100	> 100	> 100		
CCOC(=O)COc1cc(-c2ccccc2)nc2cc(F)ccc12	> 100	> 100		> 100	> 100	> 100	> 100	> 100	> 100	> 100	> 100	
CCC12CN(C(=O)OC)C3C(Br)C1CCC(=O)C32 (stereo not given)		> 100	> 100	> 100	> 100	> 100	> 100	> 100	> 100	> 100	> 100	
CCC1=NC(N/N=C/c2ccco2)=N/C1=C\c1ccco1	> 100	> 100	> 100		> 100	> 100	> 100		> 100	> 100		
Cc1cc(=O)[nH]c(Sc2ccc([N+](=O)[O-])cc2[N+](=O)[O-])n1	> 34.6	> 58.5	> 63.4	64.2	> 100	38.4	> 100	39.9	43	46.3		
CCOC1Oc2ccccc2-c2nc(N)ncc21 (stereo not given)	> 100		> 100	> 100	> 100		> 100	> 100	> 100	> 100	> 100	
CCOC(=O)CCC(NC(=O)CNC(=O)CNC(=O)C(CCC(=O)OCC)NC(=O)C(CCC(=O)OCC)NC(=O)C(CCC(=O)OCC)NC(=O)OCc1ccccc1)C(=O)NC(CCC(=O)OCC)C(=O)NC(CCC(=O)OCC)C(=O)OCC (stereo not given) (Cbz-E(OEt)E(OEt)E(OEt)GGE(OEt)E(OEt)E(OEt)-OEt; configuration not given here)	> 75		> 75	> 75	> 75	> 75	> 75	> 75		> 75		

— PubChem BioAssay (NCI)
